Results taken from patent publication US10206907B2, “Compounds useful for the treatment of degenerative and inflammatory diseases” (GALAPAGOS NV, priority 2008, dated 2019).
Read-outs that look alike come from different tables or passages of the source.

Experiments:
[1] = Microsomal stability, human liver microsomes; format: in vitro ADME; details: percentage of compound remaining after 60 minutes, 3 μM compound
Method in brief: (§1)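 Percent parent remaining after 60 min was determined by LCMS against a time-zero sample quenched before microsome addition. Incubations ran at 37°C with liver microsomes and a G6PDH-based NADPH-regenerating cofactor mix. Quench was MeOH or ACN (1:1).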

[2] = test system: TNF-alpha release; experiment: Septic shock model (LPS-induced TNF release); format: in vivo, mouse; details: 30 mg/kg po, BALB/cJ mice, LPS ip; statistically significant
[3] = test system: JAK-STAT signalling in HeLa cells; experiment: JAK-STAT signalling assay (OSM-triggered pSTAT1(2)-luciferase reporter in HeLa cells); format: cell-based; details: Homo sapiens; HeLa cells, OSM-triggered pSTAT1(2)-luciferase reporter; read-out: STAT signalling EC50
Method in brief: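 Read-out is oncostatin M–driven pSTAT1(2)-luciferase activity, corrected by co-transfected LacZ β-galactosidase, in transiently transfected HeLa cells cultured overnight at 37 °C, 10% CO2. Inhibition percentages against positive and negative controls were plotted across doses to derive EC50.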

[4] = target: Recombinant human JAK3 catalytic domain (Homo sapiens (Human), UniProt P52333); experiment: JAK3 inhibition assay; format: biochemical
[5] = Microsomal stability, rat liver microsomes; format: in vitro ADME; details: percentage of compound remaining after 60 minutes, 3 μM compound
Method in brief: as §1

[6] = Caco2 permeability (bi-directional); format: in vitro ADME, human; details: human, pH 7.4; for Papp A→B at 1 h, 10 µM: Caco-2, apical to basolateral, read-out: Papp (A2B); for efflux ratio at 1 h, 10 µM: Caco-2, ratio of PappB>A/PappA>B
Method in brief: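 Compound concentrations in both chambers were measured by LC-MS/MS after 1 h incubation at 37 °C on an orbital shaker. Efflux ratio is PappB>A over PappA>B. Lucifer Yellow (50 μM in donor) confirmed layer integrity, with permeability of ≤100 nm/s required.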

[7] = target: Recombinant human JAK1 catalytic domain (Homo sapiens (Human), UniProt P23458); experiment: JAK1 inhibition assay; format: biochemical
Method in brief: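 IC50 values come from dose-response series, with each point expressed as percent inhibition of cpm. Vehicle sets full activity and 10 μM staurosporine sets background. Incorporated radioactivity counted by scintillation after washing with 75 mM phosphoric acid.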

Sequence of Recombinant human JAK3 catalytic domain (P52333 781-1124): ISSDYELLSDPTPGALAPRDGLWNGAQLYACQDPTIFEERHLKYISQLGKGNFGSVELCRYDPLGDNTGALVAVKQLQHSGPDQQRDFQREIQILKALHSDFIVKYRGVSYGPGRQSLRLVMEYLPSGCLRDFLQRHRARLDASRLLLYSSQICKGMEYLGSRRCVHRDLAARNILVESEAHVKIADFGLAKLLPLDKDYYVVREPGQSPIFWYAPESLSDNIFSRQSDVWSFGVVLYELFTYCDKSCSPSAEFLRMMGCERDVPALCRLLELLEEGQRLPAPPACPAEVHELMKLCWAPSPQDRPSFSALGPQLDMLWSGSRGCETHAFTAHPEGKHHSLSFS
Sequence of Recombinant human JAK1 catalytic domain (P23458 850-1154): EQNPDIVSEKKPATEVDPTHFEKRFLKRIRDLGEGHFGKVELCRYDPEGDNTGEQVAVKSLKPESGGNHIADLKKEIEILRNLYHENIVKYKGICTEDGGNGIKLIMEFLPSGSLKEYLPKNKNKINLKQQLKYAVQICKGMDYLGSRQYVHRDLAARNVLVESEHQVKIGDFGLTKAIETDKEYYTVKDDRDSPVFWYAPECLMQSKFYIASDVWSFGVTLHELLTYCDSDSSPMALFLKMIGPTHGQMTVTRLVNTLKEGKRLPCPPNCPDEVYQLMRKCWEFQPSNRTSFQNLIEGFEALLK

Row | Microsomal Stability Human (%) [1] | EC50 [3] | IC50 ([4]; semi-quantitative score) | Microsomal Stability Rat (%) [5] | Papp A→B at 1 h, 10 µM [6] | efflux ratio at 1 h, 10 µM [6] | IC50 ([7]; semi-quantitative score) | Structure (SMILES) | reduction in the TNF release [2] | IC50 [4] | IC50 [7]
1 | **** (**** 76-100) | > 1 µM | > 1 µM | ** (** 26-50) | – | – | – | O=C(Nc1nc2cccc(-c3ccc(CN4CCOCC4)cc3)n2n1)C1CC1 [Compound 18, N-(5-(4-(morpholinomethyl)phenyl)-[1,2,4]triazolo[1,5-a]pyridin-2-yl)cyclopropanecarboxamide] | > 50% | – | –
2 | *** (*** 51-75) | 0.501 to 1 µM | – | * (* 0-25) | 146 nm/s | 2 | < 0.1 µM | CC1CCCN(C(=O)c2ccc(-c3cccc4nc(NC(=O)C5CC5)nn34)cc2)C1 (stereo not drawn) [Compound 145, N-(5-(4-(3-methylpiperidine-1-carbonyl)phenyl)-[1,2,4]triazolo[1,5-a]pyridin-2-yl)cyclopropanecarboxamide] | – | – | –
3 | **** (**** 76-100) | 0.101 to 0.5 µM | < 0.1 µM | **** (**** 76-100) | 60.5 nm/s | 9.3 | < 0.1 µM | CC1CN(C(=O)c2ccc(-c3cccc4nc(NC(=O)C5CC5)nn34)cc2)CC(C)O1 (stereo not drawn) [Compound 215, Cyclopropanecarboxylic acid {5-[4-(2,6-dimethyl-morpholine-4-carbonyl)-phenyl]-[1,2,4]triazolo[1,5-a]pyridin-2-yl}-amide] | > 50% | – | –
4 | **** (**** 76-100) | 0.001 to 0.1 µM | 0.101 to 0.5 µM | **** (**** 76-100) | 65 nm/s | 5.5 | < 0.1 µM | CC1(C)CN(C(=O)c2ccc(-c3cccc4nc(NC(=O)C5CC5)nn34)cc2)C1 [Compound 330, Cyclopropanecarboxylic acid (5-[4-(3,3-dimethyl-azetidine-1-carbonyl)-phenyl]-[1,2,4]triazolo[1,5-a]pyridin-2-yl}-amide] | – | – | –

Row | Structure (SMILES) | Microsomal Stability Human (%) [1] | EC50 [3] | IC50 ([4]; semi-quantitative score) | Microsomal Stability Rat (%) [5] | Papp A→B at 1 h, 10 µM [6] | efflux ratio at 1 h, 10 µM [6] | IC50 ([7]; semi-quantitative score) | reduction in the TNF release [2] | IC50 [4] | IC50 [7]
5 | N#Cc1ccc(COc2ccc(-c3cccc4nc(NC(=O)C5CC5)nn34)cc2)cn1 [Compound 176, N-(5-(4-((6-cyanopyridin-3-yl)methoxy)phenyl)-[1,2,4]triazolo[1,5-a]pyridin-2-yl)cyclopropanecarboxamide] | **** (**** 76-100) | 0.101 to 0.5 µM | – | **** (**** 76-100) | – | 0.8 | – | > 50% | < 0.1 µM | < 0.1 µM
